# Laboratory results reported in patent US20080311103A1, “Anti-Inflammatory Peptides and Methods of Use Thereof” (YEDA RESEARCH AND DEVELOPMENT CO. LTD. at THE WEIZMANN …, priority 2004, published 2008).
# Columns and labels:
# [1] = test system: mice sensitized with oxazolone; assay type: in vivo, mouse; conditions: FIG. 1; peptides by implanted osmotic pump, 0.2 μg/hour for 7 days; ear measured 24 hours after oxazolone challenge; BALB/c mice
# Description: Groups of 5 female inbred BALB/c mice (The Jackson Laboratory, Bar Harbor, Me.) were sensitized on the shaved abdominal skin with 2% oxazolone (100 μl) dissolved in acetone/olive oil [4:1 (vol/vol)] applied topically. Delayed type hypersensitivity (DTH) was elicited 5 days later by challenging the mice with 0.5% oxazolone in acetone/olive oil (10 μl given topically to each side of the ear). A constant area of the ear was measured immediately before and 24 hours after the challenge using a Mitutoyo engineer's micrometer. The percent inhibition of DTH is calculated as follows:
# % Inhibition=[1-{(treated−negative control)/(positive control−negative control)}]×100.
# The positive control is the DTH reaction to oxazolone elicited in sensitized mice without treatment. The negative control is the background swelling produced by the oxazolone antigen in naïve non-sensitized mice.
# Peptides Nos. 1-5 were given to the mice by mini perfusion pumps (alzet osmotic pump model 2001), which contained the indicated peptide (40 μg; 200 μl). The pumps were implanted under the mouse skin one day before oxazolone sensitization and they released the peptide in a rate of 1 μl per hour (0.2 μg/hour) for 7 days.
# Peptides Nos. 6-10 were given to the mice by subcutaneously injection (1 μg or 10 μg per mouse), every day, starting at one day before oxazolone sensitization and ending at day 5 post DTH initiation.
# [2] = test system: lymph node cells of oxazalone-sensitized mice transferred to syngeneic recipient mice; assay: Adoptive transfer DTH assay; assay type: in vivo, mouse; conditions: lymph node cells incubated 20 hours with peptide (10 rig/ml), injected i.v. to recipient mice; ear swelling after 24 hours
# Description: Female inbred BALB/c mice (The Jackson Laboratory, Bar Harbor, Me.) were sensitized on the shaved abdominal skin with 2% oxazalone (100 μl) dissolved in acetone/olive oil [4:1 (vol/vol)]. Two donor mice were sensitized for one recipient mouse. On day 5, lymph nodes were removed and single-cell suspensions of lymph node cells were prepared. Lymph node cells were incubated (20 hours) with either peptide No. 3 or peptide No. 5 (10 rig/ml) in RPMI 1640 containing 10% FCS. After the incubation, the cells were washed, resuspended with PBS and injected intravenously (40 million cells per mouse) to syngeneic recipient mice. The mice were immediately challenged with 0.5% oxazalone in acetone/olive oil (10 μl given topically to each side of the ear) to elicit DTH reactions. The increment of ear swelling was measured after 24 hours.
# Jurkat and THP-1 cells = assay: TNFα secretion by PMA/PHA induced Jurkat and THP-1 cells; assay type: cell-based, human; conditions: peptide 1 μg/ml; 48 hours; ELISA
# Description: Jurkat cells human T cell lymphoma line) (2×10^6 cells/ml) cultured in RPMI-1640 supplemented with 10% FCS were activated with PMA (50 ng/ml) and phytohaemagglutinin PHA (4 µg/ml) for 6 hours at 37° C. (7.5% CO2-humidified atmosphere). Thereafter, the cells were washed, plated on 24-well plates (10^6 cells/well in 0.5 ml), and incubated (1 hour at 37° C., 7.5% CO2-humidified atmosphere) with the indicated concentrations of peptides 1-5. Following the incubation, THP-1 cells (human monocytic cell line derived from a patient with acute monocytic leukaemia; 1.25×10^5 cells/0.5 ml/well) were added to the wells. After 48 hours, the supernatants were collected and their TNF[…] content was determined by ELISA using anti TNF[…] mAb (Pharmingen; San Diego, Calif.) according to the manufacturer's instructions.
# [3] = test system: anti-CD3 antibody induced TNFα secretion from T cells; assay: TNFα secretion by anti-CD3 activated T cells; assay type: cell-based, human; conditions: peptide 100 ng/ml; 24 hours; ELISA; FIG. 7A
# Description: (§1) Human T cells were purified and maintained in culture (RPMI containing 10% FCS, 1% Pyruvate, 1% glutamine, 1% antibiotics, 7.5% CO2, humidified atmosphere) for 15 hr before they were transferred to RPMI and activated (2 hr, 37° C.) with the indicated concentrations of the peptides. The cells were then plated (1.5×10^6 cells/0.5 ml/well) in 24 wells plates (non-tissue culture grade) precoated with anti-CD3 mAb in order to stimulate the cells to secrete cytokines. After 24 hours, the supernatants were collected and their cytokine content (TNFα and IFNγ) was determined by ELISA using anti-IFNγ and anti TNFα mAb (Pharmingen; San Diego, Calif.) according to the manufacturer's instructions.
# [4] = test system: anti-CD3 antibody induced IFNγ secretion from T cells; assay: IFNγ secretion by anti-CD3 activated T cells; assay type: cell-based, human; design: concentration or dose not given beside the values; conditions: 24 hours; ELISA; FIG. 7B
# Description: as §1
# BALB/C mice = assay: TNBS-induced colitis model of inflammatory bowel disease (IBD); assay type: in vivo, mouse; conditions: 50 μg/mouse SC daily; day 7 after TNBS
# Description: BALB/C mice, which were anesthetized for 5-10 min, received by intrarectal administration, 30 μl of a solution of 2,4,6-trinitrobenzene sulfonic acid (TNBS; 100 mg/kg) dissolved in 0.9% NaCl and mixed with an equal volume of ethanol (50% ethanol). Animals were killed 7 days after TNBS administration.
# Wound fluid peptides were administered once daily by subcutaneous (SC) administration starting 1 day before the induction of colitis and every day for the next 7 days as follows:
# Treatment with the wound fluid peptides was evaluated at day 7 by determination of macroscopic inflammation scores. The colon of each mouse was examined under a dissecting microscope to evaluate the macroscopic lesions according to the Wallace criteria. The Wallace score lists macroscopic colon lesions on a scale from 0 to 10 based on features reflecting inflammation, such as hyperemia, thickening of the bowel, and extent of ulceration (Wallace, J. L., et al. 1989, Gastroenterology, 96:29).
sequence,measurement,setting,value
"WDNLEKETEGL [peptide No. 3, residues 96-106 of Apo A-I; identified in wound fluids, then synthesized]",inhibition of DTH response,[1],~40%
same,inhibition of adoptive transfer DTH response,[2],80%
same,inhibition of TNFα secretion by Jurkat and THP-1 cells compared to PMA/PHA alone,Jurkat and THP-1 cells,50%
same,inhibition of anti-CD3 antibody induced TNFα secretion from T cells,[3],50%
same,inhibition of anti-CD3 antibody induced IFNγ secretion from T cells,[4],65%
same,"Wallace score (macroscopic inflammation score, scale 0 to 10)",BALB/C mice,4.0±1.3
